Values of other authors, collected in publication PMC7876056, “Population Pharmacokinetic Analysis of Yimitasvir in Chinese Healthy Volunteers and Patients With Chronic Hepatitis C Virus Infection” (Frontiers in Pharmacology, 2021).
Like-named read-outs stand apart in the source and are kept apart here.

Details: cited from earlier work; for Time-varying ALT as covariate on PK: healthy volunteers and HCV patients
[1] = ref U.S. Food and Drug Administration, 2014
[2] = ref U.S. Food and Drug Administration, 2016

SMILES: COC(=O)N[C@H](C(=O)N1CC2(CC2)C[C@H]1c1ncc(-c2ccc3c(c2)C(F)(F)c2cc(-c4ccc5nc([C@@H]6[C@H]7CC[C@H](C7)N6C(=O)[C@@H](NC(=O)OC)C(C)C)[nH]c5c4)ccc2-3)[nH]1)C(C)C [ledipasvir]
- Time-varying ALT as covariate on PK [1]: not identified as a significant covariate
- Effect of co-medication of sofosbuvir on PK profile (ref German et al., 2016): not affected by co-medication of sofosbuvir
- Gender effect on CL/F [1]: lower CL/F values in females

SMILES: COC[C@H]1C[C@@H](c2ncc(-c3ccc4c(c3)COc3cc5c(ccc6nc([C@@H]7CC[C@H](C)N7C(=O)[C@@H](NC(=O)OC)C(C)C)[nH]c65)cc3-4)[nH]2)N(C(=O)[C@H](NC(=O)OC)c2ccccc2)C1 [velpatasvir]
- Time-varying ALT as covariate on PK [2]: not identified as a significant covariate
- Effect of co-medication of sofosbuvir on PK profile (ref Brieva et al., 2017): not affected by co-medication of sofosbuvir
- Gender effect on CL/F [2]: lower CL/F values in females

SMILES: COC(=O)N[C@H](C(=O)N1CCC[C@H]1c1nc(-c2ccc(-c3ccc(-c4c[nH]c([C@@H]5CCCN5C(=O)[C@@H](NC(=O)OC)C(C)C)n4)cc3)cc2)c[nH]1)C(C)C [daclatasvir]
- Time-varying ALT as covariate on CL/F (patient population only, ref Chan et al., 2017): significant covariate
- Effect of time-varying ALT on AUCss (ref Chan et al., 2017): small
- Gender effect on CL/F (ref Chan et al., 2017): lower CL/F values in females
